The results in this text go back to patent US11766397B2, “Bioactive compositions comprising ficus serum fracton and methods to reduce the appearance of skin hyperpigmentation” (ISP INVESTMENTS LLC, priority 2010, dated 2023).

This experiment concerns facial hyperpigmented spots in humans. Nature of the experiment: In vivo testing for hyperpigmented spot reduction and melanin evenness (split face, vehicle controlled). Set-up: species or system human. As to conditions: for Melanin Evenness vs Vehicle / NC2SAF (spot area fraction) vs Vehicle: twice daily facial application. How it is done: A 9 week in-vivo study was conducted using a round robin, vehicle controlled, split face design including a 1 week normalization period with 270 subjects. The 270 subjects were screened according to inclusion/exclusion criteria which included the following:
• Has hyperpigmented spots around cheek and/or periorbital area on both sides of the face. • Has at least 1 hyperpigmented spot of 8-10 mm diameter, 4 spots of 4-6 mm or 10 spots of 2-3 mm diameter (sun spots., freckles, or melasma spots) or • equivalent spot area in the cheek area on each side of their face. • Is willing to refrain from sun exposure by using supplied UV lotion and physical UV blocks, such as a hat, to avoid facial sunburn, tanning or wind burn.
• Has been diagnosed as having atopy, eczema, psoriasis, or other chronic skin diseases. • Has obvious signs of facial skin disease (e.g., more than 5 pimples, areas of red scaling skin, superficial thin blood vessels, etc.). • Has significant areas of discoloration or scarring on the face. • Has more than 3 prominent moles (<3 mm) on the face.
Two hundred and seventy subjects were recruited for the study. Approximately 60 subjects dropped during the course of the study. Each subject received two coded test formulations for twice daily application to each half of the face. Images of the facial treatment sites were captured at baseline (week 0), and after 4 and 8 weeks of treatment and analyzed for changes to skin color and spot size and color. The product formulations included a vehicle control, the Vehicle+0.55% FSF, and the vehicle+5% vitamin B3 compound (Niacinamide).
Noncontact spectrophotometric intracutaneous analysis (SiaScopy, Astron Clinica, UK) was used to collect and analyze the subject images. The method used a digital camera (e.g., Fuji S2 digital SLR) as a […] and a flash lighting source (e.g., Sigma Super flash light source) to recover facial chromophore information. A cross polarized filter was placed in front of the camera and the lighting source to eliminate specular reflection.
Chromophore mapping of the concentration and distribution of eumelanin (melanin) and oxyhaemoglobin produces grayscale concentration maps of each of these chromophores. Image analysis software, such as Optimas 6.5, can be used to select a region of interest in each chromophore map from which mean grayscale values and spot area fraction are calculated. Spot area fraction refers to total area occupied by melanin spots as a percentage of the whole region of interest. A description of one type of chromophore mapping can be found in EP 1,810,614 and “The Distribution of Melanin in Skin Determined In Vivo”, British Journal of Dermatology, 2007, pp 620-628.

Turning to `NC(=O)c1cccnc1` [Niacinamide], the “Melanin Evenness vs Vehicle” value (4 weeks) is “ns (ns = not significant (p > 0.3))” and the “Melanin Evenness vs Vehicle” value (8 weeks) is recorded as “sig (sig = significant (p < 0.1))”. The “NC2SAF (spot area fraction) vs Vehicle” value is given as “as” (4 weeks) and “sig (sig = significant (p < 0.1))” (8 weeks). In addition, for the setting “After 8 weeks”, the reducing hyperpigmented spots entry is reported as “best performer”.
